Reference: patent US11168073B2, “3,3-difluoroallylamines or salts thereof and pharmaceutical compositions comprising the same” (YUHAN CORPORATION, priority 2018, dated 2021)
Counter-ions that a name gives are not always drawn.

Columns and labels:
Type in all cases: biochemical
recombinant human VAP-1 = molecular target: T1, recombinant human VAP-1 (Homo sapiens, UniProt Q16853); test: Activity evaluation on recombinant human VAP-1 (Amplex Red/HRP-coupled hydrogen peroxide assay, benzylamine substrate); conditions: recombinant human VAP-1; 30 min preincubation at 37° C.; 1 mM benzylamine; read-out: Inhibitory Activity (IC50, nM) human VAP-1
T1 construct: purchased R&D systems
T1 sequence (Q16853 1-763): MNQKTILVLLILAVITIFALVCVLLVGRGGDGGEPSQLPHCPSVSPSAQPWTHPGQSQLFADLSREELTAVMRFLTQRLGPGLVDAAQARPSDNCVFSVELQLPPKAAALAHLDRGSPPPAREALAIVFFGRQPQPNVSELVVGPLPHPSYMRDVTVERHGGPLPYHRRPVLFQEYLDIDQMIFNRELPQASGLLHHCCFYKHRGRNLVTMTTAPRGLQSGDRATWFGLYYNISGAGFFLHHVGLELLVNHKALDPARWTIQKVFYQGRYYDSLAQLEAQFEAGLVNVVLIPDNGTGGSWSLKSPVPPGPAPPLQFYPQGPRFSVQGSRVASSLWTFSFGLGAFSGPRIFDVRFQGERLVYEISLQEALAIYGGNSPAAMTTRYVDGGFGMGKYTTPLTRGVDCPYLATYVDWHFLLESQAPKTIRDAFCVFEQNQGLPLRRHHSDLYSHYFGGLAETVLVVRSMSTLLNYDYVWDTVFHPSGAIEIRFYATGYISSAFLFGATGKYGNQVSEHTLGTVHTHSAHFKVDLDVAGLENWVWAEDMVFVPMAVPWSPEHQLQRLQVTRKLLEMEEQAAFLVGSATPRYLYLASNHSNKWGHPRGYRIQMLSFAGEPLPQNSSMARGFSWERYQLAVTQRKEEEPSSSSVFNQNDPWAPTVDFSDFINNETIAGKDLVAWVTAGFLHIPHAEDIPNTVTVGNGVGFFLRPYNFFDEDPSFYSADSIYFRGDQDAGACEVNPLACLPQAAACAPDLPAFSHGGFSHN
Procedure, shortened: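 Hydrogen peroxide from benzylamine (1 mM) oxidation by human recombinant VAP-1 detected via HRP-coupled Amplex Red (200 uM) fluorescence, kinetic over 1–2 h. Enzyme and compound preincubated 30 min at 37 °C, pH 7.4 phosphate; 8-point dose response, signal-rate decrease versus DMSO control fitted to four-parameter logistic for IC50.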

[1] = molecular target: T2, recombinant human MAO-A (monoamine oxidase-A) (Homo sapiens, UniProt P21397); test: Activity evaluation on recombinant human MAO-A (Amplex Red/HRP-coupled assay, 0.5 mM tyramine substrate); conditions: 0.5 mM tyramine, read-out: Inhibitory Activity (IC50, nM) MAO-A
T2 construct: purchased Sigma-Aldrich
T2 sequence (P21397 1-527): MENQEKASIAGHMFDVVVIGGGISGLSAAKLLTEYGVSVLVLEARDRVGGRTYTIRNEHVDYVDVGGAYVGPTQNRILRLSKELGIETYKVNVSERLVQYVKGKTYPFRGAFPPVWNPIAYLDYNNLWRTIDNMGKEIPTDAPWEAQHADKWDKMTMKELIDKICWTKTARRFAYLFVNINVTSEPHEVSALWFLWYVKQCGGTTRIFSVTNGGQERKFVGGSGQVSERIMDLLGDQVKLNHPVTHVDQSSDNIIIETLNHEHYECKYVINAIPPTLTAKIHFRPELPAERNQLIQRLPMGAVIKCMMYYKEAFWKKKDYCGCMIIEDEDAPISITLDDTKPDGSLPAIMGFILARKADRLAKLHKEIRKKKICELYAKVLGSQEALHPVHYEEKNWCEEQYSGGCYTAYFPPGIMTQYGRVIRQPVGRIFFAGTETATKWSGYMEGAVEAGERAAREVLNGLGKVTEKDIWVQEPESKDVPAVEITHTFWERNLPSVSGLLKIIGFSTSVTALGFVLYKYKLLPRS
Procedure, shortened: (§1)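 Using an HRP-coupled Amplex Red readout (544/590 nm, kinetic over 1–2 h), IC50 values were fitted by 4-parameter logistic model to percent decrease in signal rate against DMSO control. Compounds (1:3 dilutions, 8 points, <1% DMSO) sat 30 min at 37 °C with enzyme in pH 7.4 phosphate buffer before substrate, 200 uM Amplex Red and HRP were added.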

[2] = molecular target: T3, recombinant human MAO-B (monoamine oxidase-B) (Homo sapiens, UniProt P27338); test: Activity evaluation on recombinant human MAO-B (Amplex Red/HRP-coupled assay, 1 mM benzylamine substrate); conditions: 1 mM benzylamine, read-out: Inhibitory Activity (IC50, nM) MAO-B
T3 construct: purchased Sigma-Aldrich
T3 sequence (P27338 1-520): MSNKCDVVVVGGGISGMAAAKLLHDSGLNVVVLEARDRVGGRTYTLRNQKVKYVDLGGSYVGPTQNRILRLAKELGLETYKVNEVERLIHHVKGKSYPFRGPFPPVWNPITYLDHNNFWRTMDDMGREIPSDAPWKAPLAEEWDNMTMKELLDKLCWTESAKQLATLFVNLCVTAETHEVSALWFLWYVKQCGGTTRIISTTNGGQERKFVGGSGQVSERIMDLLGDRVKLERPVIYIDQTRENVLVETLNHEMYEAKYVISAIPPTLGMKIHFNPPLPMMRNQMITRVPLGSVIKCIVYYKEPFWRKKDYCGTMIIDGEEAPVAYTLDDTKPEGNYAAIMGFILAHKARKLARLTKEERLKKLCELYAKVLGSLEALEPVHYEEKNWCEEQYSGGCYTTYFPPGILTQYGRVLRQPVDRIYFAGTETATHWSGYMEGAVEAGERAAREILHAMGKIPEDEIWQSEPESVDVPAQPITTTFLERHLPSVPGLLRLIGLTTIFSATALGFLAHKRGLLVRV
Procedure, shortened: as §1

[3] = molecular target: T4, recombinant human DAO (diamine oxidase) (Homo sapiens, UniProt P19801); test: Activity evaluation on recombinant human DAO (Amplex Red/HRP-coupled assay, 1 mM putrescine substrate); conditions: 1 mM putrescine, read-out: Inhibitory Activity (IC50, nM) DAO
T4 construct: purchased R&D systems
T4 sequence (P19801 20-751): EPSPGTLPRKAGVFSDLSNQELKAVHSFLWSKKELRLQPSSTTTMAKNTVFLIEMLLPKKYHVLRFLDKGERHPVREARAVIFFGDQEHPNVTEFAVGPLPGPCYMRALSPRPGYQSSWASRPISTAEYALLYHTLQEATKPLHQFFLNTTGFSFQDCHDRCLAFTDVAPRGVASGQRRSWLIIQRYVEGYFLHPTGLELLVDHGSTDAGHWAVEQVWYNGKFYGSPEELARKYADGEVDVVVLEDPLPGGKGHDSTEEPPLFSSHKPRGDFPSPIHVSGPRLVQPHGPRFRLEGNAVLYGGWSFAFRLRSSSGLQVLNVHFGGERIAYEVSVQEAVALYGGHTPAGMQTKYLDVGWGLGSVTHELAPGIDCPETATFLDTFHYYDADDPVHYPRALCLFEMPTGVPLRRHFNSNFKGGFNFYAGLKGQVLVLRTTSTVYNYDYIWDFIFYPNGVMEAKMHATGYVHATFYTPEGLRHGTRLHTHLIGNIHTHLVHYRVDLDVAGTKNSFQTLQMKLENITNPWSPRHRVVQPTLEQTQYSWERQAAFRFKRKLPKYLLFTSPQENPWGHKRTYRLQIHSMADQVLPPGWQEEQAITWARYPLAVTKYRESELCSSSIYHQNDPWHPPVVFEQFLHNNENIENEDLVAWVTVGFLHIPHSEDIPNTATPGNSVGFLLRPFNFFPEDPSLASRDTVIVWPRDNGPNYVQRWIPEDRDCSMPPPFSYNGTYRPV
Procedure, shortened: as §1

IC50 (recombinant human VAP-1) [nM] | IC50 [1] [nM] | IC50 [2] [nM] | IC50 [3] [nM] | SMILES
0.1 | > 100000 | 160 | 97 | Cc1cc(-c2ccc(-n3cnn(CC(CN)=C(F)F)c3=O)c(F)c2)cc2c1NC(=O)CC2 [Example 36, 6-[4-[1-[2-(aminomethyl)-3,3-difluoro-allyl]-5-oxo-1,2,4-triazol-4-yl]-3-fluoro-phenyl]-8-methyl-3,4-dihydro-1H-quinolin-2-one Trifluoroacetate]
0.2 | > 100000 | 470 | 120 | CN(C)c1ccc(-c2ccc(-n3cnn(CC(CN)=C(F)F)c3=O)cn2)cn1 [Example 41, 2-[2-(aminomethyl)-3,3-difluoro-allyl]-4-[6-[6-(dimethylamino)-3-pyridyl]-3-pyridyl]-1,2,4-triazol-3-one Trifluoroacetate]
0.3 | > 100000 | 34 | 250 | NCC(Cn1ncn(-c2ccc(-c3ccc4c(c3)OCO4)nc2)c1=O)=C(F)F [Example 42, 2-[2-(aminomethyl)-3,3-difluoro-allyl]-4-[6-(1,3-benzodioxol-5-yl)-3-pyridyl]-1,2,4-triazol-3-one Trifluoroacetate]
0.2 | > 100000 | 100 | 22 | Cc1cc(-c2ccc(-n3cnn(CC(CN)=C(F)F)c3=O)cn2)cc2c1NC(=O)CC2 [Example 43, 6-[5-[1-[2-(aminomethyl)-3,3-difluoro-allyl]-5-oxo-1,2,4-triazol-4-yl]-2-pyridyl]-8-methyl-3,4-dihydro-1H-quinolin-2-one Trifluoroacetate]
0.3 | > 100000 | 110 | 14 | CN1C(=O)CCc2cc(-c3ccc(-n4cnn(CC(CN)=C(F)F)c4=O)cn3)ccc21 [Example 44, 6-[5-[1-[2-(aminomethyl)-3,3-difluoro-allyl]-5-oxo-1,2,4-triazol-4-yl]-2-pyridyl]-1-methyl-3,4-dihydroquinolin-2-one Trifluoroacetate]

Second part, the compound before the results:

SMILES | IC50 (recombinant human VAP-1) [nM] | IC50 [1] [nM] | IC50 [2] [nM] | IC50 [3] [nM]
NCC(Cn1ncn(-c2ccc(-c3ccc4c(c3)OCO4)cc2F)c1=O)=C(F)F [Example 35, 2-[2-(aminomethyl)-3,3-difluoro-allyl]-4-[4-(1,3-benzodioxol-5-yl)-2-fluoro-phenyl]-1,2,4-triazol-3-one Trifluoroacetate] | 0.3 | > 100000 | 33 | 540
CCn1cc(-c2ccc(-n3cnn(CC(CN)=C(F)F)c3=O)c(F)c2)cn1 [Example 37, 2-[2-(aminomethyl)-3,3-difluoro-allyl]-4-[4-(1-ethylpyrazol-4-yl)-2-fluoro-phenyl]-1,2,4-triazol-3-one Trifluoroacetate] | 0.5 | > 100000 | 880 | 860
CS(=O)(=O)c1ccc(-c2ccc(-n3cnn(CC(CN)=C(F)F)c3=O)cn2)cc1 [Example 38, 2-[2-(aminomethyl)-3,3-difluoro-allyl]-4-[6-(4-methylsulfonylphenyl)-3-pyridyl]-1,2,4-triazol-3-one Trifluoroacetate] | 0.4 | > 100000 | 450 | 24
NCC(Cn1ncn(-c2ccc(-c3ccc(N4CCNCC4)cc3)nc2)c1=O)=C(F)F [Example 39, 2-[2-(aminomethyl)-3,3-difluoro-allyl]-4-[6-(4-piperazin-1-ylphenyl)-3-pyridyl]-1,2,4-triazol-3-one Ditrifluoroacetate] | 1.2 | > 100000 | 46000 | 310
NCC(Cn1ncn(-c2ccc(-c3ccc(C(F)(F)F)nc3)nc2)c1=O)=C(F)F [Example 40, 2-[2-(aminomethyl)-3,3-difluoro-allyl]-4-[6-[6-(trifluoromethyl)-3-pyridyl]-3-pyridyl]-1,2,4-triazol-3-one Trifluoroacetate] | 0.3 | > 100000 | 200 | 12
CCn1cc(-c2ccc(-n3cnn(CC(CN)=C(F)F)c3=O)cn2)cn1 [Example 45, 2-[2-(aminomethyl)-3,3-difluoro-allyl]-4-[6-(1-ethylpyrazol-4-yl)-3-pyridyl]-1,2,4-triazol-3-one Trifluoroacetate] | 0.2 | > 100000 | 410 | 200
CS(=O)(=O)c1ccc(-c2cccc(-n3cnn(CC(CN)=C(F)F)c3=O)n2)cc1 [Example 46, 2-[2-(aminomethyl)-3,3-difluoro-allyl]-4-[6-(4-methylsulfonylphenyl)-2-pyridyl]-1,2,4-triazol-3-one Trifluoroacetate] | 0.9 | > 100000 | > 100000 | 190
NCC(Cn1ncn(-c2cccc(-c3ccc(N4CCNCC4)cc3)n2)c1=O)=C(F)F [Example 47, 2-[2-(aminomethyl)-3,3-difluoro-allyl]-4-[6-(4-piperazin-1-ylphenyl)-2-pyridyl]-1,2,4-triazol-3-one Ditrifluoroacetate] | 3.5 | > 100000 | > 100000 | 1900
